{
  "source": "patent US11179372B2",
  "about": "“Isoxazoline solution containing vitamin E for use with sanitized drinking water” (Intervet Inc., priority 2015, dated 2021)",
  "key": {"[1]": {"test": "Accelerated stability testing of pharmaceutical composition comprising a protector", "assay_type": "physicochemical", "conditions": "with alpha-tocopherol; up to 8 months; 2-8° C., 30° C./65% RH, 40° C./75% RH, 50° C.", "procedure": "Similar to the experiments described in Example 3 above, where the effect of water quality on Fluralaner-containing medicated drinking water was tested; here samples of the pharmaceutical composition were tested for an effect of the addition of a protector, on their stability during prolonged storage.\nTo test the long term stability of the pharmaceutical composition with a protector, some samples were stored under conditions of accelerated ageing. Samples of the pharmaceutical composition with or without one of the protectors, were filled out in portions of 7 gram each, in 10 ml glass vials, sealed with rubber stoppers, and stored under different conditions: 2-8° C.; 30° C./65% RH; 40° C./75% RH, and 50° C. […]"}, "[2]": {"test": "Tolerance and plasma concentrations of Fluralaner in laying hens (Example 2)", "assay_type": "in vivo, chickens", "procedure": "No vitamin E was present in the concentrated Fluralaner solution used to prepare the medicated drinking water.\nThe effectivity of an oral dosing regimen of Fluralaner was tested by administering medicated drinking water (via gavage) to laying hens, in 2 repeated doses of 0.25, 0.5 or 1.0 mg/kg body weight, administered 7 days apart, and challenging them with infestation by Northern fowl mites, via source birds and natural infestation. The birds were kept in separate pens, at 11 birds per pen."}, "[3]": {"test_system": "poultry red mite (D. gallinae)", "test": "Efficacy of Fluralaner in medicated drinking water against poultry red mite infestation of laying hens", "assay_type": "in vivo, Dermanyssus gallinae", "conditions": "for % Inhibition of mites 24 hours after infestation on day 1 / % Inhibition of mites 24 hours after infestation on day 5 / % Inhibition of mites 24 hours after infestation on day 8 / % Inhibition of mites 24 hours after infestation on day 12 / % Inhibition of mites 24 hours after infestation on day 15 / % Inhibition of mites 24 hours after infestation on day 19 / % Inhibition of mites 24 hours after infestation on day 22 / % Mortality of mites 24 hours after infestation on day 1 / % Mortality of mites 24 hours after infestation on day 5 / % Mortality of mites 24 hours after infestation on day 8 / % Mortality of mites 24 hours after infestation on day 12 / % Mortality of mites 24 hours after infestation on day 15 / % Mortality of mites 24 hours after infestation on day 19 / % Mortality of mites 24 hours after infestation on day 22: laying hens", "from_the_text": "The drinking water used was regular tap water not comprising a significant amount of oxidising sanitizer, and no vitamin E was used in the concentrated Fluralaner solution used. Experimental animals were chickens, particularly laying hens of about 30 weeks old. These were housed in a standard poultry house. Apparently healthy birds were assigned in a random way to treatment groups kept separately, and labelled individually. The birds were kept under natural light, and were given several days for acclimatization; drinking water consumption in each group was measured on three days prior to administration to calculate the average daily water consumption. Medicated water was prepared by diluting a concentrated Fluralaner solution (10 mg/ml) to the desired concentration of Fluralaner in regular tap water (hypochlorite <0.5 ppm). […] Groups A-D (n=6) were treated with doses of 2, 1 or 0.5 mg Fluralaner/kg BW once, or with 1 mg Fluralaner/kg BW in a repeated dose of 0.5 mg/kg BW on 2 occasions, 7 days apart. On day 0 (and group D additionally on day 7), the hens in groups A-D received Fluralaner via medicated drinking water. Group E received un-medicated drinking water ad libitum. The dose to be administered was calculated based on average body weights of each treatment group, measured one day before treatment (day −1, day 6). A concentrated Fluralaner solution was diluted in the drinking water to prepare medicated drinking water ready for consumption, via the following dosing regimen: • The volume of medicated water offered per group on day 0 (group D also on day 7) was approximately 50% of the calculated mean daily water intake measured previously in the respective group in order to ensure consumption of the full dose. • Once all medicated water was consumed the other 50% volume of the mean daily water intake was supplied as unmedicated tap water in the same drinker. On days 1, 5, 8, 12, 15, 19 and 22, four of the six hens per group were infested with approximately 200 vital, D. gallinae mites (unfed nymphs and adults that had starved before infestation for 7 days). From each infested hen approximately 25 engorged mites were collected after a few hours of presence in the animal box, next they were incubated for approximately 24 hours, after which their status was observed. The dead, damaged and/or live mites were counted visually using a binocular. Mites were classified as dead if no movement was determined or mites lay in a dorsal position. Mites were classified as damaged if their movement was uncoordinated. The Mite Mortality and Mite Inhibition percentage was calculated for each treated group in comparison to a non-treated negative control group."}, "[4]": {"conditions": "Group A, 2 mg/kg BW once, drinking water"}, "[5]": {"conditions": "Group B, 1 mg/kg BW once, drinking water"}, "[6]": {"conditions": "Group C, 0.5 mg/kg BW once, drinking water"}, "[7]": {"conditions": "Group D, 1 (2 × 0.5) mg/kg BW, days 0 and 7, drinking water"}},
  "data": [
    {"molecule": "Cc1cc(C2=NOC(c3cc(Cl)cc(Cl)c3)(C(F)(F)F)C2)ccc1C(=O)NCC(=O)NCC(F)(F)F", "note": "(stereo not drawn) [Fluralaner]", "values": [
      {"measurement": "Level of Fluralaner in pharmaceutical composition on storage", "setting": "[1]", "result": "no significant reduction"},
      {"measurement": "Tolerance in the hens", "setting": "[2]; 2 single doses of 0.25, 0.5, or 1 mg/kg BW, 7 days apart, oral", "result": "well tolerated"},
      {"measurement": "Concentrations of Fluralaner in the birds' plasma", "setting": "[2]; doses 0.25, 0.5, 1.0 mg/kg BW twice", "result": "increased proportionally to the dose administered"},
      {"measurement": "% Inhibition of mites 24 hours after infestation on day 1", "setting": "[3]; [4]", "result": 100, "unit": "%"},
      {"measurement": "% Inhibition of mites 24 hours after infestation on day 5", "setting": "[3]; [4]", "result": 100, "unit": "%"},
      {"measurement": "% Inhibition of mites 24 hours after infestation on day 8", "setting": "[3]; [4]", "result": 100, "unit": "%"},
      {"measurement": "% Inhibition of mites 24 hours after infestation on day 12", "setting": "[3]; [4]", "result": 100, "unit": "%"},
      {"measurement": "% Inhibition of mites 24 hours after infestation on day 15", "setting": "[3]; [4]", "result": 81, "unit": "%"},
      {"measurement": "% Inhibition of mites 24 hours after infestation on day 19", "setting": "[3]; [4]", "result": 14, "unit": "%"},
      {"measurement": "% Inhibition of mites 24 hours after infestation on day 22", "setting": "[3]; [4]", "result": 0, "unit": "%"},
      {"measurement": "% Mortality of mites 24 hours after infestation on day 1", "setting": "[3]; [4]", "result": 100, "unit": "%"},
      {"measurement": "% Mortality of mites 24 hours after infestation on day 5", "setting": "[3]; [4]", "result": 100, "unit": "%"},
      {"measurement": "% Mortality of mites 24 hours after infestation on day 8", "setting": "[3]; [4]", "result": 100, "unit": "%"},
      {"measurement": "% Mortality of mites 24 hours after infestation on day 12", "setting": "[3]; [4]", "result": 100, "unit": "%"},
      {"measurement": "% Mortality of mites 24 hours after infestation on day 15", "setting": "[3]; [4]", "result": 77, "unit": "%"},
      {"measurement": "% Mortality of mites 24 hours after infestation on day 19", "setting": "[3]; [4]", "result": 1, "unit": "%"},
      {"measurement": "% Mortality of mites 24 hours after infestation on day 22", "setting": "[3]; [4]", "result": 0, "unit": "%"},
      {"measurement": "% Inhibition of mites 24 hours after infestation on day 1", "setting": "[3]; [5]", "result": 100, "unit": "%"},
      {"measurement": "% Inhibition of mites 24 hours after infestation on day 5", "setting": "[3]; [5]", "result": 100, "unit": "%"},
      {"measurement": "% Inhibition of mites 24 hours after infestation on day 8", "setting": "[3]; [5]", "result": 100, "unit": "%"},
      {"measurement": "% Inhibition of mites 24 hours after infestation on day 12", "setting": "[3]; [5]", "result": 95, "unit": "%"},
      {"measurement": "% Inhibition of mites 24 hours after infestation on day 15", "setting": "[3]; [5]", "result": 81, "unit": "%"},
      {"measurement": "% Inhibition of mites 24 hours after infestation on day 19", "setting": "[3]; [5]", "result": 3, "unit": "%"},
      {"measurement": "% Inhibition of mites 24 hours after infestation on day 22", "setting": "[3]; [5]", "result": 0, "unit": "%"},
      {"measurement": "% Mortality of mites 24 hours after infestation on day 1", "setting": "[3]; [5]", "result": 100, "unit": "%"},
      {"measurement": "% Mortality of mites 24 hours after infestation on day 5", "setting": "[3]; [5]", "result": 100, "unit": "%"},
      {"measurement": "% Mortality of mites 24 hours after infestation on day 8", "setting": "[3]; [5]", "result": 100, "unit": "%"},
      {"measurement": "% Mortality of mites 24 hours after infestation on day 12", "setting": "[3]; [5]", "result": 94, "unit": "%"},
      {"measurement": "% Mortality of mites 24 hours after infestation on day 15", "setting": "[3]; [5]", "result": 77, "unit": "%"},
      {"measurement": "% Mortality of mites 24 hours after infestation on day 19", "setting": "[3]; [5]", "result": 2, "unit": "%"},
      {"measurement": "% Mortality of mites 24 hours after infestation on day 22", "setting": "[3]; [5]", "result": 0, "unit": "%"},
      {"measurement": "% Inhibition of mites 24 hours after infestation on day 1", "setting": "[3]; [6]", "result": 100, "unit": "%"},
      {"measurement": "% Inhibition of mites 24 hours after infestation on day 5", "setting": "[3]; [6]", "result": 100, "unit": "%"},
      {"measurement": "% Inhibition of mites 24 hours after infestation on day 8", "setting": "[3]; [6]", "result": 100, "unit": "%"},
      {"measurement": "% Inhibition of mites 24 hours after infestation on day 12", "setting": "[3]; [6]", "result": 75, "unit": "%"},
      {"measurement": "% Inhibition of mites 24 hours after infestation on day 15", "setting": "[3]; [6]", "result": 19, "unit": "%"},
      {"measurement": "% Inhibition of mites 24 hours after infestation on day 19", "setting": "[3]; [6]", "result": 0, "unit": "%"},
      {"measurement": "% Inhibition of mites 24 hours after infestation on day 22", "setting": "[3]; [6]", "result": 0, "unit": "%"},
      {"measurement": "% Mortality of mites 24 hours after infestation on day 1", "setting": "[3]; [6]", "result": 100, "unit": "%"},
      {"measurement": "% Mortality of mites 24 hours after infestation on day 5", "setting": "[3]; [6]", "result": 100, "unit": "%"},
      {"measurement": "% Mortality of mites 24 hours after infestation on day 8", "setting": "[3]; [6]", "result": 97, "unit": "%"},
      {"measurement": "% Mortality of mites 24 hours after infestation on day 12", "setting": "[3]; [6]", "result": 55, "unit": "%"},
      {"measurement": "% Mortality of mites 24 hours after infestation on day 15", "setting": "[3]; [6]", "result": 15, "unit": "%"},
      {"measurement": "% Mortality of mites 24 hours after infestation on day 19", "setting": "[3]; [6]", "result": 0, "unit": "%"},
      {"measurement": "% Mortality of mites 24 hours after infestation on day 22", "setting": "[3]; [6]", "result": 0, "unit": "%"},
      {"measurement": "% Inhibition of mites 24 hours after infestation on day 1", "setting": "[3]; [7]", "result": 100, "unit": "%"},
      {"measurement": "% Inhibition of mites 24 hours after infestation on day 5", "setting": "[3]; [7]", "result": 100, "unit": "%"},
      {"measurement": "% Inhibition of mites 24 hours after infestation on day 8", "setting": "[3]; [7]", "result": 100, "unit": "%"},
      {"measurement": "% Inhibition of mites 24 hours after infestation on day 12", "setting": "[3]; [7]", "result": 100, "unit": "%"},
      {"measurement": "% Inhibition of mites 24 hours after infestation on day 15", "setting": "[3]; [7]", "result": 99, "unit": "%"},
      {"measurement": "% Inhibition of mites 24 hours after infestation on day 19", "setting": "[3]; [7]", "result": 66, "unit": "%"},
      {"measurement": "% Inhibition of mites 24 hours after infestation on day 22", "setting": "[3]; [7]", "result": 27, "unit": "%"},
      {"measurement": "% Mortality of mites 24 hours after infestation on day 1", "setting": "[3]; [7]", "result": 100, "unit": "%"},
      {"measurement": "% Mortality of mites 24 hours after infestation on day 5", "setting": "[3]; [7]", "result": 100, "unit": "%"},
      {"measurement": "% Mortality of mites 24 hours after infestation on day 8", "setting": "[3]; [7]", "result": 100, "unit": "%"},
      {"measurement": "% Mortality of mites 24 hours after infestation on day 12", "setting": "[3]; [7]", "result": 100, "unit": "%"},
      {"measurement": "% Mortality of mites 24 hours after infestation on day 15", "setting": "[3]; [7]", "result": 98, "unit": "%"},
      {"measurement": "% Mortality of mites 24 hours after infestation on day 19", "setting": "[3]; [7]", "result": 59, "unit": "%"},
      {"measurement": "% Mortality of mites 24 hours after infestation on day 22", "setting": "[3]; [7]", "result": 14, "unit": "%"},
      {"measurement": "Onset of action against red mites", "setting": "[3]; all administered doses", "result": "fast onset of action"}
    ]}
  ]
}
